# Source: patent US20250382631A1, “PROTAC-CID SYSTEMS FOR USE IN MULTIPLEX GENE REGULATION” (William Marsh Rice University, priority 2022, published 2025)
# Where two headings read alike, the source gives them in different places.
# Legend:
# [1] = PROTAC-CID inducible EYFP gene activation, flow cytometry; type: cell-based, human; details: Homo sapiens, HEK-293T, FIG. 13A
# Experimental: (§1) Fluorescence assay using flow cytometry analysis. Cells were treated with 0.05% Trpsin EDTA (Thermo Fisher Scientific no. 25300054) or TrypLE (Thermo Fisher Scientific no. 12605028) after transfection and centrifuged at 3000 g for 5 min. Supernatant was removed and the cell pellet was resuspended with 200 μL phosphate buffered saline (PBS) without calcium and magnesium (Thermo Fisher Scientific no. 10010023). Cells were transferred into 12×75 mm flow tubes (Global Scientific no. 110410). Cells were analyzed by MA900 flow cytometry (SONY). 405 nm laser (FL6 filter) was used for testing the BFP channel. 488 nm (FL1 filter) was used for testing the EYFP and GFP channel. Automated alignment using Automatic Setup Beads kit (SONY no. LE-B3001) is performed before running samples. In FIGS. 3A, 3B, and 17, experiments were performed under 2% FSC, 17% BSC, 24% FL1. In FIG. 18, experiments were performed under 2% FSC, 17% BSC, 27% FL1. All the other experiments were performed under 2% FSC, 17% BSC, 24% FL1 and 27% FL6. Flow cytometry data was processed and analyzed by FlowJo 10. Events were first gated with forward scatter-Area (FSC-A) and side scatter-Area (SSC-A) to select viable cells and remove the debris and dead cells. Cells were further gated with FSC-A and FSC-Height (FSC-H) for selecting single cells. The mean intensity of the reporter fluorescent protein (BFP and EYFP) in viable and single cell populations were calculated by FlowJo 10 as the mean of FL6-A and FL1-A. When calculating the fold change of relative fluorescence units (RFU), the relative fluorescence units of EYFP was calculated by dividing the mean of fluorescence intensity of EYFP with the mean of BFP fluorescence intensity for normalization as the following formula: […]
# (§2) Next, the mean of the normalized relative fluorescence units of induced group were divided by the value of control group for calculating the fold change as the following formula: […]
# (§3) Transfection and microscopy. HEK293T cells (American Type Culture Collection, no. CRL-3216) were cultured with high-glucose Dulbecco's modified Eagle's medium (DMEM) (Thermo Fisher Scientific no. 10569044) with 10% fetal bovine serum (FBS) (Thermo Fisher Scientific no. 10437028) and 1×penicillin-streptomycin (Thermo Fisher Scientific no. 15140122) at 37° C. with 5% CO2. Except for the data in FIGS. 3C, 3E, and 3H, cells were plated into 96 well plate (Corning no. 3598) and transfected by Polyethyleneimine Max (PEI Max) (Polysciences no. 24765-1). 1.5 μL PEI Max (1 mg/mL, pH=7.1) and 100 μl DMEM were mixed with plasmids to be slowly dropped into the cell medium after 30 mins of incubation. Medium was changed 12 hours post-transfection. The inductive small molecules, including Rapamycin (STEM CELL technologies no. 73362), dTAG-13 (TOCRIS no. 6605/5), dTAG^V-1 (TOCRIS no. 6744-5), dBRD9 (TOCRIS no. 6606/5), dTRIM24 (TOCRIS no. 6607/5), MZ1 (TOCRIS no. 6154/5), AT1 (TOCRIS no. 6356/5), TL13-12 (TOCRIS no. 6744/5), TL13-112 (TOCRIS no. 6745/5), dTAG-7 (TOCRIS no. 69125), ZXH3-26 (TOCRIS no. 6713/5) and ABA (GoldBio no. A-050-100), dissolved in Dimethyl sulfoxide (DMSO) (Sigma, no. D8418) were added. For the microscopy observation, the images were taken by Microscopy EVOS (Life Technologies) and processed by ImageJ (Schneider et al., 2012). If not otherwise noted, 60 ng of each plasmid were used for each sample.
# (§4) Step-by-step fluorescence protein activation assay protocol. Reagents: • 1. PEI Max (Polysciences no. 24765-1) • 2. DMEM, high glucose, GlutaMAX™ Supplement, pyruvate (Thermo Fisher Scientific no. 10569044) • 3. Penicillin-Streptomycin (10,000 U/mL) (Thermo Fisher Scientific no. 15140122) • 4. Fetal Bovine Serum 500ML (FBS) (Thermo Fisher Scientific no. 10437028) • 5. TrypLE™ Express Enzyme (1×), phenol red (Thermo Fisher Scientific no. 12605068) • 6. PBS pH=7.4 (Thermo Fisher Scientific no. 10010023) • 7. Sony sorting chip […] for MA900 (SONY no. LE-C3210) • 8. Automatic Setup Beads kit (SONY no. LE-B3001) • 9. […]
# [2] = tested on: pUAS-1-driven EYFP expression in HEK293T cells transfected with GAL4- and VPR-fused PROTAC target protein / E3 ubiquitin ligase; assay: as above; type: cell-based, human; details: for Bottom (best-fit value) / Span (best-fit value) / Top (best-fit value): Table 4 nonlinear regression of EYFP activation; for Bottom (best-fit value) / Span (best-fit value) / Top (best-fit value) / Hillslope (best-fit value) / logEC50 (best-fit value) / EC50: FIG. 13A
# Experimental: as §1, §2, §3, §4
# [3] = tested on: isABE system (FRB / FKBP3 fused split ABE8e), EYFP reporter in HEK293T cells; assay: isABE split adenine base editor, EYFP stop-codon reporter dose response; type: cell-based; details: Homo sapiens, HEK-293T; different doses of Rapamycin, FIG. 5J
# From the text: For rapid exploration of inducible ABE variants, the inventors first sought to develop a rapid fluorescence-based reporter system to quantify the ABE efficiency as reported before. The inventors selected target region in eyfp gene with NGG PAM where a CAG codon within the editing window was mutated to TAG stop codon. ABEs convert A to G or T to C, thus allowing the conversion of stop codon to CAG following gRNA binding to untemplated strand. Additionally, there is no other bystander A in the editing window that would cause complex editing to affect the fluorescence expression. The inventors observed a high restoration of the EYFP fluorescence when transfecting HEK293T cells with plasmids encoding the ABE8e fused SpCas9 and guide RNA (FIGS. 5A and 5B). Next, the target range of base editors was restricted by the PAM where the prototypical SpCas9 recognizing target sites with NGG PAM (where N is A, C, G or T). A variant named SpG was identified with an expanded set of NGN PAM. […]
# To develop a split adenosine base editor system, the inventors identified two potential split regions based on the crystal structure of ABE8e base editor in complex with guide RNA and target DNA. […] In addition, moderate levels of eYFP signal were detected in both sites. […]
# [4] = target: PYL-VPR (UniProt Q8VZS8); assay: cell-based or functional assay
# Chain of PYL-VPR (Q8VZS8 33-209): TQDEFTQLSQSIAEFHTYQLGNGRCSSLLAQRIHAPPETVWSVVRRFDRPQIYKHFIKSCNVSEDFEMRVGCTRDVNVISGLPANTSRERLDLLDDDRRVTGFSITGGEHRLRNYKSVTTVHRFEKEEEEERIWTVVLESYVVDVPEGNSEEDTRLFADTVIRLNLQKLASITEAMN
# [5] = target: BRD4^BD2-VPR (human); assay: cell-based or functional assay
# [6] = target: TRIM24^BD-VPR (human); assay: cell-based or functional assay
# [7] = tested on: EYFP and BFP expression in HEK293T cells; assay: Dual PROTAC-based inducible gene cassettes (EYFP and BFP), microscopy; type: cell-based, human; details: GAL4-FKBP12^F36V + VHL-VPR driving EYFP; TetR-BRD9BD + CRBN-VPR driving BFP; 1 μM, FIG. 2B
# Experimental: as §3
# The inventors next tested the feasibility of dual PROTAC-based inducible gene cassettes (FIG. 15). In the first cassette, GAL4 was fused with FKBP12^F36V, and VHL was ligated with VPR to drive EYFP expression in response to dTAG^V-1. In the second cassette, TetR was fused with BRD9BD, and CRBN was connected with VPR to drive blue fluorescence protein (BFP) expression in the presence of dBRD9. […] As biological computation relies on the protein or DNA to execute Boolean logic gate operation in living organisms for cell discrimination and disease diagnosis (3, 11, 42), the inventors next explored the possibility of PROTAC-CID enabled logic gate biological computation. By placing EYFP under control of the TRE (Tetracycline response element) and pUAS-1 promoter, the inventors observed strong EYFP expression by using one or two PROTACs, achieving clear logic OR gate responses (FIGS. 2C and 16B). To develop a more sophisticated logic AND gate, the inventors took advantage of two orthogonal site-specific DNA recombinases (Cre and Dre) for biological computation (43). […] In this gene circuit, only in the presence of both dTAG-13 and dBRD9 inducers, Dre and Cre can be expressed to remove their respective “STOP” signals, resulting in the eventual GFP expression as a clear logic AND readout (FIGS. 2D and 16C).
# [8] = target: wild-type FKBP12 (Homo sapiens, UniProt P62942); details: refs (32, 36); cited from earlier work
# Chain of wild-type FKBP12 (P62942 whole entry, species assumed, the tested form may be a part): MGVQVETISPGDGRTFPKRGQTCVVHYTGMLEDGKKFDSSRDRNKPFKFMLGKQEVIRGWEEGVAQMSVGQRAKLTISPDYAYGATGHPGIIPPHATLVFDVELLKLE
# [9] = target: GAL4-FKBP12 (UniProt P04386); assay: cell-based or functional assay
# [10] = tested on: Cre-mediated GFP expression in HEK293T cells; assay: Inducible Cre site-specific DNA recombination, LoxP-STOP-LoxP-GFP reporter; type: cell-based, human; details: 100 nM dTAG-13 or 1 μM dBRD9, 2 days, FIGS. 3A and 17
# Experimental: as §1
# Transfection and microscopy. […]
# [11] = Table 4 nonlinear regression, Prism 9 [Agonist] vs. response variable slope (four parameters), no unit in table (the source gives nM), read-out: EC50 (best-fit value)
# [12] = dose-response, read-out: EC50 for gene activation
compound,measurement,setting,value
CO[C@H]1C[C@@H]2CC[C@@H](C)[C@@](O)(O2)C(=O)C(=O)N2CCCC[C@H]2C(=O)O[C@H]([C@H](C)C[C@@H]2CC[C@@H](O)[C@H](OC)C2)CC(=O)[C@H](C)/C=C(\C)[C@@H](O)[C@@H](OC)C(=O)[C@H](C)C[C@H](C)/C=C/C=C/C=C/1C [Rapamycin],EC50,[1]; [11],6.32 nM
same,EC50,[1]; [12],6 nM
same,Bottom (best-fit value),[2],6.692
same,Span (best-fit value),[2],483.9
same,Top (best-fit value),[2],490.6
same,Hillslope (best-fit value),[2]; Table 4 nonlinear regression,1.871
same,logEC50 (best-fit value),[2]; Table 4 nonlinear regression,0.8008
same,rapamycin-based gene activation (EYFP),"[2]; using FRB and FKBP12, FIG. 1B",355 fold
same,EC50,[3],0.0018 µM
GAL4-ABI (from UniProt P04386 1-147; P49597 126-423),"EC50 of the inducer ABA for EYFP gene activation (dose-response, FIG. 13A)",[4],0.763 µM
GAL4-VHL fusion protein,"EC50 of the inducer MZ1 for EYFP gene activation (dose-response, FIG. 13A)",[5],0.0324 µM
same,"EC50 of the inducer dTRIM24 for EYFP gene activation (dose-response, FIG. 13A)",[6],6.35 µM
CC[C@H](C(=O)N1CCCC[C@H]1C(=O)O[C@H](CCc1ccc(OC)c(OC)c1)c1ccccc1OCC(=O)NCCCCCCC(=O)N[C@H](C(=O)N1C[C@H](O)C[C@H]1C(=O)N[C@@H](C)c1ccc(-c2scnc2C)cc1)C(C)(C)C)c1cc(OC)c(OC)c(OC)c1 [dTAG^V-1],Bottom (best-fit value),[2],0.9420
same,Span (best-fit value),[2],55.73
same,Top (best-fit value),[2],56.67
same,Hillslope (best-fit value),[2]; Table 4 nonlinear regression,1.937
same,logEC50 (best-fit value),[2]; Table 4 nonlinear regression,2.358
same,EC50,[2]; [11],228 nM
same,EC50,[2]; [12],228 nM
same,EYFP / BFP expression from dual inducible cassettes,[7],expression only in the presence of its corresponding inducer
same,degradation of wild-type FKBP12,[8],do not degrade wild-type FKBP12
FRB-VPR (from UniProt P42345 2021-2113),"EC50 of the inducer Rapamycin for EYFP gene activation (dose-response, FIG. 13A)",[9],0.00632 µM
same,fold EYFP gene activation with rapamycin,[9],355 fold
COc1cc(-c2cn(C)c(=O)c3cnccc23)cc(OC)c1CN(C)CC(=O)NCCOCCOCCNc1cccc2c1C(=O)N(C1CCC(=O)NC1=O)C2=O (stereo not shown) [dBRD9],EYFP / BFP expression from dual inducible cassettes,[7],expression only in the presence of its corresponding inducer
same,"GFP signal, two-layer genetic circuit driving Cre",[10],strong GFP signal
